Experimental data: patent US7056945B1, “Selective inhibition of neuronal nitric oxide synthase” (priority 2002, dated 2006)
Each block holds one molecule with its values, some of them ahead of it.

Key:
N368D eNOS mutant = N368D eNOS mutant (Bos taurus, UniProt P29473, N368D); test: Ki for inhibition of N368D eNOS mutant; format: biochemical; settings: Asn368 replaced with Asp in eNOS (N368D eNOS mutant)
Description: (§1) We next tested this hypothesis by producing D597N nNOS and N368D eNOS mutant proteins.

D597N nNOS mutant = target: T1, D597N nNOS mutant (Rattus norvegicus, UniProt P29476, D597N); test: Ki for inhibition of D597N nNOS mutant; format: biochemical
T1 construct: made in house
Description: as §1

wild type nNOS = wild type nNOS (Rattus norvegicus, UniProt P29476); test: Ki for inhibition of wild type nNOS; format: biochemical
Description: as §1

NOS = settings: cited from earlier work
all three NOS isoforms = settings: similar for all three NOS isoforms; cited from earlier work

Ki (N368D eNOS mutant): 5.1 µM
Ki (D597N nNOS mutant): 21 µM
Ki (wild type nNOS): 0.097 µM
Structure (SMILES): NC(=O)[C@@H]1C[C@@H](N)CN1C(=O)[C@@H](N)CCC/N=C(\N)N[N+](=O)[O-] [DIP3, L-N^□-nitroarginine-(4R)-amino-L-proline amide]

Structure (SMILES): N=C(NCCC[C@H](N)C(=O)O)N[N+](=O)[O-] [L-NNA, L-N^ω-nitroarginine]
potency (NOS; L-NNA bound in the active site of eNOS (FIG. 1C legend)): low nM
selectivity between NOS isoforms (NOS): poor selectivity

Structure (SMILES): N=C(N)NCCC[C@H](N)C(=O)O [L-arginine]
Km (all three NOS isoforms): low μM range
